The results in this text go back to patent publication US20230365570A1, “COMPOUNDS WITH GLUCOCORTICOID SPARING EFFECTS AND USES THEREOF” (The Regents of the University of California, priority 2020, published 2023).

The series has as its system RA FLS. Briefly: Cell viability of RA FLS by WST-8 assay. It counts as cell-based, human. The conditions noted are these: WST-8 assay (FIG. 6F). Here is the method:
Two types of tetrazolium were used for viability assays. For THP-1 cells, the cells were dispensed in 96-well plates (10^5 cells/200 μL/ well) and treated with 5 Oil of each compound. After 18 h of incubation, 0.5 mg/ml 3[4,5-dimethylthiazol-2-yl]-2,5-dipheyl tetrazolium bromide (MTT; Thermo Fisher Scientific) in assay media was added to each well at a final concentration of (0.5 mg/ml) and further incubated for 4-6 h. The absorbances at 570 and 650 nm were measured by a Tecan Infinite M200 plate reader, For RA FLS, the cells were dispersed into 96-well flat bottom plates (104/200 μL/well) and incubated overnight. The next day, RA FLS were treated with 5 μM of each compound for 18 h of incubation. Ten μl of WST-8 [2-(2-methoxy-4-nitrophenyl)-3-(4-nitrophenyl)-5-(2,4-disulfophewnyl)-2H-tetrazolium, monosodium salt] solution was added to each well and the cells were further incubated for 2-4 h. The absorbance was measured at 450 nm with Bio-Rad iMark plate reader (Bio-Rad Laboratories Inc., Hercules, CA, Unites States).
(In general: Formazan colour is commonly taken as a measure of viable cells.)

As for `Cc1ccc(-n2ncc3c(NC4CCCCC4)ncnc32)c(C)c1` [Compound 1-1], the “Cytotoxicity in RA FLS” value was “low cytotoxicity”.
